Source: patent US6906098B2, “Mixed steroidal 1,2,4,5-tetraoxane compounds and methods of making and using thereof” (priority 2002, dated 2005)
Values after ≈ are worked out from the molar mass of the structure shown. Values joined by “and” are separate entries in the source; they are usually repeats but may differ in a detail not shown here. Identical values can stand only once. Like-named read-outs stand apart in the source and are kept apart here.

Legend:
[1] = tested on: Plasmodium falciparum chloroquine-susceptible strain D6; test: In vitro antimalarial drug susceptibility assay (radiolabeled hypoxanthine incorporation), strain D6; assay type: cell-based; conditions: growth inhibition, chloroquine-susceptible strain D6, 66 h incubation
[2] = tested on: Plasmodium falciparum chloroquine-resistant strain W2; test: microbe, parasite or virus in culture; assay type: cell-based; conditions: growth inhibition, chloroquine-resistant strain W2, 66 h incubation
[3] = tested on: D6 and W2 P. falciparum clones; assay type: cell-based, Plasmodium falciparum; conditions: IC50 (W2)/IC50 (D6) ratio
[4] = tested on: Mycobacterium tuberculosis H37Rv (ATCC 27294); test: Primary screen, Microplate Alamar Blue Assay (MABA), percent inhibition; assay type: cell-based; conditions: Mycobacterium tuberculosis, primary screening at 6.25 μg/ml
Summary of the method: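 Single-concentration screen at 6.25 μg/ml (or molar equivalent of the heaviest congener in a series) against H37Rv grown in BACTEC 12B medium. Growth read by Microplate Alamar Blue Assay, reported as percent inhibition.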

M. tuberculosis H37Rv = test: Minimum inhibitory concentration (MIC) in the MABA; assay type: cell-based, Mycobacterium tuberculosis; conditions: Mycobacterium tuberculosis, H37RV, read-out: MIC
Summary of the method: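 Run under the NIAID TAACF screening program against M. tuberculosis by fluorescence read-out. MIC taken as the lowest concentration giving 90% reduction in fluorescence relative to controls.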

[5] = tested on: IGROV1 ovarian cancer cell line; test: NCI in vitro antiproliferative screen (SRB), IGROV1; assay type: cell-based, human; conditions: IGROV1, after 48 h
Protocol: (§1) In preliminary tests, four compounds (1B14a, 1C44, 1C45, and 1C46) were chosen by NIH-NCI for in vitro screening. See Drug discovery and development program, National Cancer Institute, Bethesda, (NCI), http://dtp.nci.nih.gov. All tetraoxanes were evaluated in the 3-cell line (lung—NCI-H460, breast—MCF7, CNS-SF-268) one dose primary anticancer assay: growth percentage after 48 hours, at 100 μM concentration of tested compound. Two compounds were eliminated at this step (1B14a and 1C46), while the acid 1C44 and primary amide 1C45 were evaluated against the full panel of 60 human tumor cell lines starting with 10^−4 M concentration of investigated compounds.
(§2) The activity of numerous compounds of the present invention against various cancer cell lines was submitted to the Developmental Therapeutics Program (DTP) at the National Cancer Institute (NCI) of the National Institutes of Health (NIH) for screening.
(§3) The DTP Human Tumor Cell Line Screen utilizes 60 different human tumor cell lines, representing leukemia, melanoma and cancers of the lung, colon, brain, ovary, breast, prostate, and kidney according to conventional methods known in the art. See e.g. Alley, M. C., et al. (1988) Cancer Research 48:589-601; Grever, M. R., et al. (1992) Seminars in Oncology 19(6):622-638; and Boyd, M. R., and Paull, K. D. (1995) Drug Development Research 34:91-109, which are herein incorporated by reference.
(§4) Generally, the human tumor cell lines of the cancer screening panel are grown in RPMI 1640 medium containing 5% fetal bovine serum and 2 mM L-glutamine. For a typical screening experiment, cells are inoculated into 96 well microtiter plates in 100 μl at plating densities ranging from 5,000 to 40,000 cells/well depending on the doubling time of individual cell lines. After cell inoculation, the microtiter plates are incubated at 37° C., 5% CO2, 95% air and 100% relative humidity for 24 hours prior to addition of the compounds to be tested.
(§5) After 24 hours, two plates of each cell line are fixed in situ with TCA, to represent a measurement of the cell population for each cell line at the time of drug addition (Tz). Experimental drugs are solubilized in dimethyl sulfoxide at 400-fold the desired final maximum test concentration and stored frozen prior to use. At the time of drug addition, an aliquot of frozen concentrate is thawed and diluted to twice the desired final maximum test concentration with complete medium containing 50 μg/ml gentamicin. Additional four, 10-fold or ½ log serial dilutions are made to provide a total of five drug concentrations plus control. Aliquots of 100 μl of these different drug dilutions are added to the appropriate microtiter wells already containing 100 μl of medium, resulting in the required final drug concentrations.
(§6) Following drug addition, the plates are incubated for an additional 48 hours at 37° C., 5% CO2, 95% air, and 100% relative humidity. For adherent cells, the assay is terminated by the addition of cold TCA. Cells are fixed in situ by the gentle addition of 50 μl of cold 50% (w/v) TCA (final concentration, 10% TCA) and incubated for 60 minutes at 4° C. The supernatant is discarded, and the plates are washed five times with tap water and air dried. Sulforhodamine B (SRB) solution (100 μl) at 0.4% (w/v) in 1% acetic acid is added to each well, and plates are incubated for 10 minutes at room temperature. […]

[6] = tested on: TK-10 renal cancer cell line; test: NCI in vitro antiproliferative screen (SRB), TK-10; assay type: cell-based, human; conditions: TK-10, after 48 h; for GI50 / CC50: Homo sapiens; for CC50: read-out: LC50 (the source's name)
Protocol: as §1, §2, §3, §4, §5, §6

[7] = tested on: UO-31 renal cancer cell line; test: NCI in vitro antiproliferative screen (SRB), UO-31; assay type: cell-based, human; conditions: UO-31, after 48 h; for GI50 / CC50: Homo sapiens; for CC50: read-out: LC50 (the source's name)
Protocol: as §1, §2, §3, §4, §5, §6

SR leukemia cell line = test: NCI in vitro antiproliferative screen (SRB), SR; assay type: cell-based, human; conditions: after 48 h; for GI50 / CC50: Homo sapiens; for CC50: read-out: LC50 (the source's name)
Protocol: as §1, §2, §3, §4, §5, §6

[8] = tested on: KM-12 colon cancer cell line; test: NCI in vitro antiproliferative screen (SRB), KM-12; assay type: cell-based, human; conditions: KM-12, after 48 h; for GI50 / CC50: Homo sapiens, KM12; for CC50: read-out: LC50 (the source's name)
Protocol: as §1, §2, §3, §4, §5, §6

[9] = tested on: MALME-3M melanoma cancer cell line; test: NCI in vitro antiproliferative screen (SRB), MALME-3M; assay type: cell-based, human; conditions: for GI50 / CC50: Homo sapiens; for CC50: read-out: LC50 (the source's name)
Protocol: as §1, §2, §3, §4, §5, §6

VERO cells [10] = tested on: VERO cells
VERO cells [11] = test: cells; conditions: Chlorocebus sabaeus, Table 5
in vitro = conditions: African green monkey, Cytotoxcity (IC50)
[12] = Table 3, H37Rv, read-out: Inhibition (%)
[13] = Table 5, Alamar assay, read-out: % Inhib
[14] = Table 5, Alamar assay, M. tuberculosis H37Rv
[15] = MALME-3M, after 48 h, read-out: GI50
[16] = ratio of IC50 in VERO cells to MIC (M. tuberculosis H37Rv)

Row | SMILES | Strain D6 IC50 [1] [µg/mL] | Strain W2 IC50 [2] [µg/mL] | Resistance Index [3] | inhibition at 6.25 µg/mL [4, 12] [%] | inhibition at 6.25 µg/mL [4, 13] [%] | MIC (M. tuberculosis H37Rv; Table 3, H37Rv) | MIC (M. tuberculosis H37Rv; [14]) [µg/mL] | GI50 ([5]; Homo sapiens, IGROV-1) [µM] | TGI [5] [µM] | GI50 [6] [µM] | CC50 [6] [µM] | TGI [6] [µM] | GI50 [7] [µM] | CC50 [7] [µM] | TGI [7] [µM] | GI50 (SR leukemia cell line) [µM] | CC50 (SR leukemia cell line) [µM] | GI50 [8] [µM] | CC50 [8] [µM] | TGI [8] [µM] | further results
1 | CC(=O)O[C@H]1CC2C(C3CC[C@H](C(C)CCC(=O)O)[C@]31C)[C@H](OC(C)=O)C[C@@H]1CC3(CC[C@]21C)OOC1(CCC(c2ccccc2)CC1)OO3 (single isomer, unassigned) [Compound 1C44, 7α,12α-Diacetoxy-5β-cholan-24-oic acid-3-spiro-6′-(1′,2′,4′,5′-tetraoxacyclohexane)-3′-spiro-1″-((4″R or S)-phenyl)cyclohexane] | 0.00619 | 0.00609 | 0.98 | 94 | 94 | 6.25 µg/mL (≈ 8.97 µM) | 6.25 (≈ 8.97 µM) | 0.26 | 0.82 | 1.99 | 27 | 5.94 | 1.83 | 6.73 | 3.51 | 1.83 | 100 | 1.96 | 40.1 | 5.36 | LC50 (concentration killing 50% of cells) ([5]; Homo sapiens, IGROV-1): 3.76 µM; TGI (SR leukemia cell line): 5.92 µM; GI50 [9, 15]: 2.27 µM; CC50 ([9]; MALME-3M, after 48 h): 47 µM; TGI ([9]; MALME-3M, after 48 h): 9.14 µM; SI (selectivity index) (VERO cells [10]; [16]): 0.17; IC50 (VERO cells [11]): 1.07 µg/mL (≈ 1.54 µM)
2 | CC(=O)O[C@H]1CC2C(C3CC[C@H](C(C)CCC(N)=O)[C@]31C)[C@H](OC(C)=O)C[C@@H]1CC3(CC[C@]21C)OOC1(CCC(c2ccccc2)CC1)OO3 (single isomer, unassigned) [Compound 1C45, 7α,12α-Diacetoxy-5β-cholan-24-amide-3-spiro-6′-(1′,2′,4′,5′-tetraoxacyclohexane)-3′-spiro-1″-((4″R or S)-phenyl)cyclohexane] | 0.00719 | 0.00736 | 1.02 | 93 | 93 | 6.25 µg/mL (≈ 8.98 µM) | 6.25 (≈ 8.98 µM) | 0.295 | 1.11 | 2.7 | 8.07 | 4.66 | 0.36 | 4.57 | 1.35 | 0.29 | 100 | 1.19 | 7.15 | 2.92 | GI50 ([9]; Malme-3M): 0.02 µM; GI50 [9, 15]: 0.02 µM; CC50 ([9]; MALME-3M, after 48 h): 37.3 µM; TGI ([9]; MALME-3M, after 48 h): 3.99 µM
3 | CNC(=O)CCC(C)[C@H]1CCC2C3C(C[C@H](OC(C)=O)[C@@]21C)[C@@]1(C)CCC2(C[C@H]1C[C@H]3OC(C)=O)OOC1(CCC(C)CC1)OO2 (stereo partly drawn) [18/1C27, N-Methyl-7α,12α-diacetoxy-5β-cholan-24-amide-3-spiro-6′-(1′,2′,4′,5′-tetraoxacyclohexane)-3′-spiro-1″-((4″R)-methyl)cyclohexane] | 0.00386 | 0.00234 | 0.61 | 98 | 98 | 6.25 µg/mL and 9.65 µM | 6.25 (≈ 9.65 µM) |  |  |  |  |  |  |  |  |  |  |  |  |  | SI (selectivity index) (VERO cells [10]; [16]): 0.91; IC50 (in vitro; Table 3, VERO cell line, 72 hours exposure): 5.69 µg/mL and 8.78 µM
4 | CC(=O)O[C@H]1C(=O)[C@@]2(C)[C@H]([C@H](OC(=O)c3ccccc3)[C@]3(O)C[C@H](OC(=O)[C@H](O)[C@@H](NC(=O)c4ccccc4)c4ccccc4)C(C)=C1C3(C)C)[C@]1(OC(C)=O)CO[C@@H]1C[C@@H]2O [Paclitaxel, reference compound] |  |  |  |  |  |  |  | 0.032 | 79.4 | 0.25 | 79.4 | 50.1 | 1.58 | 100 | 39.8 | 0.079 | 63.1 | 0.0079 | 100 | 79.4 | TGI (SR leukemia cell line): 63.1 µM; GI50 [9, 15]: 2.51 µM; CC50 ([9]; MALME-3M, after 48 h): 79.4 µM; TGI ([9]; MALME-3M, after 48 h): 50.1 µM
5 | CO[C@H]1/C=C/O[C@@]2(C)Oc3c(C)c(O)c4c(O)c(c(/C=N/N5CCN(C)CC5)c(O)c4c3C2=O)NC(=O)/C(C)=C\C=C\[C@H](C)[C@H](O)[C@@H](C)[C@@H](O)[C@@H](C)[C@H](OC(C)=O)[C@@H]1C [Rifampin, reference compound] |  |  |  |  |  | 0.12 µg/mL and 0.15 µM |  |  |  |  |  |  |  |  |  |  |  |  |  |  | SI (selectivity index) (VERO cells [10]): > 800; IC50 (VERO cells [11]): > 100 µg/mL; IC50 (in vitro): 111 µg/mL and 134 µM
